Test results reported in patent publication US11752156B2, “Compositions and methods for treating hyperproliferative skin disorders” (Athenex HK Innovative Limited, priority 2018, dated 2023).
Several values for one entry are separate records, joined by “and”; a condition that tells them apart may be missing. Equal entries are not always repeated. Where two headings read alike, the source gives them in different places.

Key:
[1] = tested on: squamous cell human carcinoma cell line (SCC A431); test: MTT cell proliferation assay, 72 hours, dark or blue light, squamous cell carcinoma; format: cell-based; settings: for inhibition at 0.005 µM / inhibition at 0.02 µM / inhibition at 0.08 µM / inhibition at 0.32 µM / inhibition at 1.28 µM: Homo sapiens, read-out: growth inhibition relative to untreated control
Experimental: The effects of combined treatment with KX01, a vitamin D derivative, and/or blue/UV light exposure were characterized using a cell proliferation assay. Cell proliferation was assessed by using an MTT assay. Cells were seeded in 96-well plate (3,000-5,000 cells per well) and treated with test compounds at varying concentrations (e.g. KX01: 5 to 80 nM; calcipotriol 5 to 1,280 nM) for 72 hours, either in the dark or exposed to blue light irradiation (for 2, 4, or 6 hours). To each well, 10 μl of 3-(4,5-dimethylthiazol-2-yl)-2,5-diphenyltetrazolium bromide (MTT) (RPI Corporation™) solution (5 mg/ml in PBS) was added and incubated at 37° C. for 3 hours. Next, 100 μl of 20% SDS was added to each well. After overnight incubation at 37° C., the absorbance in each well was measured at 570 nm in a microplate reader (Molecular Devices™). The cell growth curve and GI50s were calculate using GraphPad Prism™ 5 software. Similar studies were performed using a squamous cell carcinoma cell line (SCC A431). Tables 19 and 20 show the results of cell growth inhibition studies (expressed as a percentage relative to control cell growth) for treatment with either KX01 or calcipotriol in combination with exposure to blue light. […] The percentage of growth inhibition relative to untreated control is shown. Tables 21 to 24 show the effects of combined treatment with KX01, calcipotriol, and exposure to blue light at 0 hours, 2 hours, 4 hours, and 6 hours of light exposure (respectively) on human squamous cell carcinoma cells. Values are expressed as the percentage of growth inhibition relative to cells grown under control conditions (0 hours blue light, [KX01]=0, [calcipotriol]=0). The percentage of growth inhibition relative to an untreated control is shown. […] Results are shown below in Tables 31 and 32, which show results for KX01 and calcipotriol (respectively). Values are expressed as the percentage of growth inhibition relative to cells grown under control conditions (0 hours blue light, [KX01]=0, [calcipotriol]=0). […] Results are shown below in Tables 33 to Table 36, which show results from 0, 2, 4, and 6 hours of blue light exposure (respectively). Values are expressed as the percentage of growth inhibition relative to cells grown under control conditions (0 hours blue light, [KX01]=0, [calcipotriol]=0).

[2] = tested on: CCD 1106 KERTr human keratinocyte cell line; test: MTT cell proliferation assay, 72 hours, dark or blue light, keratinocytes; format: cell-based; settings: for inhibition at 0.005 µM / inhibition at 0.02 µM / inhibition at 0.08 µM / inhibition at 0.32 µM / inhibition at 1.28 µM: Homo sapiens, read-out: growth inhibition relative to untreated control
Experimental: The effects of combined treatment with KX01, a vitamin D derivative, and/or blue/UV light exposure were characterized using a cell proliferation assay. Cell proliferation was assessed by using an MTT assay. Cells were seeded in 96-well plate (3,000-5,000 cells per well) and treated with test compounds at varying concentrations (e.g. KX01: 5 to 80 nM; calcipotriol 5 to 1,280 nM) for 72 hours, either in the dark or exposed to blue light irradiation (for 2, 4, or 6 hours). To each well, 10 μl of 3-(4,5-dimethylthiazol-2-yl)-2,5-diphenyltetrazolium bromide (MTT) (RPI Corporation™) solution (5 mg/ml in PBS) was added and incubated at 37° C. for 3 hours. Next, 100 μl of 20% SDS was added to each well. After overnight incubation at 37° C., the absorbance in each well was measured at 570 nm in a microplate reader (Molecular Devices™). The cell growth curve and GI50s were calculate using GraphPad Prism™ 5 software. Tables 13 and 14 show the results of cell growth inhibition studies (expressed as a percentage relative to control cell growth) for treatment with either KX01 or calcipotriol in combination with exposure to blue light. […] The percentage of growth inhibition relative to untreated control is shown. […] The percentage of growth inhibition relative to untreated control is shown. Tables 15 to 18 show the effects of combined treatment with KX01, calcipotriol, and exposure to blue light at 0 hours, 2 hours, 4 hours, and 6 hours of light exposure (respectively). Values are expressed as the percentage of growth inhibition relative to cells grown under control conditions (0 hours blue light, [KX01]=0, [calcipotriol]=0). […] Results are shown below in Tables 27 to Table 30, which show results from 0, 2, 4, and 6 hours of blue light exposure (respectively). Values are expressed as the percentage of growth inhibition relative to cells grown under control conditions (0 hours blue light, [KX01]=0, [calcipotriol]=0).

[3] = calcipotriol 5 nM, blue light 0 h
[4] = calcipotriol 5 nM, blue light 2 h
[5] = calcipotriol 5 nM, blue light 4 h
[6] = calcipotriol 5 nM, blue light 6 h
[7] = calcipotriol 20 nM, blue light 4 h
[8] = calcipotriol 80 nM, blue light 0 h
[9] = calcipotriol 80 nM, blue light 4 h
[10] = calcipotriol 80 nM, blue light 6 h
[11] = calcipotriol 320 nM, blue light 2 h
[12] = calcipotriol 320 nM, blue light 4 h
[13] = calcipotriol 1,280 nM, blue light 0 h
[14] = calcipotriol 1,280 nM, blue light 4 h
[15] = calcipotriol 1,280 nM, blue light 6 h

## C=C1/C(=C\C=C2/CCC[C@]3(C)[C@@H]([C@H](C)/C=C/[C@@H](O)C4CC4)CC[C@@H]23)C[C@@H](O)C[C@@H]1O [Calcipotriol, calcipotriol]
[1]; A-431, 0 h, calcipotriol 5 nM, blue light 0 h
  inhibition at 0.005 µM: 19%
[1]; A-431, 0 h, calcipotriol 20 nM, blue light 0 h
  inhibition at 0.02 µM: 30%
[1]; A-431, 0 h, calcipotriol 80 nM, blue light 0 h
  inhibition at 0.08 µM: 40%
[1]; A-431, 0 h, calcipotriol 320 nM, blue light 0 h
  inhibition at 0.32 µM: 41%
[1]; A-431, 0 h, calcipotriol 1,280 nM, blue light 0 h
  inhibition at 1.28 µM: 36%
[1]; A-431, 2 h, calcipotriol 5 nM, blue light 2 h
  inhibition at 0.005 µM: 26%
[1]; A-431, 2 h, calcipotriol 20 nM, blue light 2 h
  inhibition at 0.02 µM: 36%
[1]; A-431, 2 h, calcipotriol 80 nM, blue light 2 h
  inhibition at 0.08 µM: 41%
[1]; A-431, 2 h, calcipotriol 320 nM, blue light 2 h
  inhibition at 0.32 µM: 35%
[1]; A-431, 2 h, calcipotriol 1,280 nM, blue light 2 h
  inhibition at 1.28 µM: 38%
[1]; A-431, 4 h, calcipotriol 5 nM, blue light 4 h
  inhibition at 0.005 µM: 49%
[1]; A-431, 4 h, calcipotriol 20 nM, blue light 4 h
  inhibition at 0.02 µM: 44%
[1]; A-431, 4 h, calcipotriol 80 nM, blue light 4 h
  inhibition at 0.08 µM: 47%
[1]; A-431, 4 h, calcipotriol 320 nM, blue light 4 h
  inhibition at 0.32 µM: 49%
[1]; A-431, 4 h, calcipotriol 1,280 nM, blue light 4 h
  inhibition at 1.28 µM: 43%
[1]; A-431, 6 h, calcipotriol 5 nM, blue light 6 h
  inhibition at 0.005 µM: 67%
[1]; A-431, 6 h, calcipotriol 20 nM, blue light 6 h
  inhibition at 0.02 µM: 69%
[1]; A-431, 6 h, calcipotriol 80 nM, blue light 6 h
  inhibition at 0.08 µM: 67%
[1]; A-431, 6 h, calcipotriol 320 nM, blue light 6 h
  inhibition at 0.32 µM: 67%
[1]; A-431, 6 h, calcipotriol 1,280 nM, blue light 6 h
  inhibition at 1.28 µM: 68%
[1]; [3]
  growth inhibition relative to untreated control: 14%
[1]; [4]
  growth inhibition relative to untreated control: 27%
[1]; [5]
  growth inhibition relative to untreated control: 50%
[1]; [6]
  growth inhibition relative to untreated control: 62%
[1]; calcipotriol 20 nM, blue light 2 h
  growth inhibition relative to untreated control: 39%
[1]; [7]
  growth inhibition relative to untreated control: 48%
[1]; calcipotriol 20 nM, blue light 6 h
  growth inhibition relative to untreated control: 63%
[1]; [8]
  growth inhibition relative to untreated control: 27%
[1]; [9]
  growth inhibition relative to untreated control: 50%
[1]; [10]
  growth inhibition relative to untreated control: 61%
[1]; calcipotriol 320 nM, blue light 0 h
  growth inhibition relative to untreated control: 31%
[1]; [11]
  growth inhibition relative to untreated control: 37%
[1]; [12]
  growth inhibition relative to untreated control: 51%
[1]; calcipotriol 320 nM, blue light 6 h
  growth inhibition relative to untreated control: 60%
[1]; [13]
  growth inhibition relative to untreated control: 28%
[1]; calcipotriol 1,280 nM, blue light 2 h
  growth inhibition relative to untreated control: 39%
[1]; [14]
  growth inhibition relative to untreated control: 48%
[1]; [15]
  growth inhibition relative to untreated control: 58% and 57%
[2]; CCD-1106, 0 h, calcipotriol 5 nM, blue light 0 h
  inhibition at 0.005 µM: 9%
[2]; CCD-1106, 0 h, calcipotriol 20 nM, blue light 0 h
  inhibition at 0.02 µM: 24%
[2]; CCD-1106, 0 h, calcipotriol 80 nM, blue light 0 h
  inhibition at 0.08 µM: 45%
[2]; CCD-1106, 0 h, calcipotriol 320 nM, blue light 0 h
  inhibition at 0.32 µM: 48%
[2]; CCD-1106, 0 h, calcipotriol 1,280 nM, blue light 0 h
  inhibition at 1.28 µM: 43%
[2]; CCD-1106, 2 h, calcipotriol 5 nM, blue light 2 h
  inhibition at 0.005 µM: 32%
[2]; CCD-1106, 2 h, calcipotriol 20 nM, blue light 2 h
  inhibition at 0.02 µM: 39%
[2]; CCD-1106, 2 h, calcipotriol 80 nM, blue light 2 h
  inhibition at 0.08 µM: 55%
[2]; CCD-1106, 2 h, calcipotriol 320 nM, blue light 2 h
  inhibition at 0.32 µM: 66%
[2]; CCD-1106, 2 h, calcipotriol 1,280 nM, blue light 2 h
  inhibition at 1.28 µM: 62%
[2]; CCD-1106, 4 h, calcipotriol 5 nM, blue light 4 h
  inhibition at 0.005 µM: 53%
[2]; CCD-1106, 4 h, calcipotriol 20 nM, blue light 4 h
  inhibition at 0.02 µM: 58%
[2]; CCD-1106, 4 h, calcipotriol 80 nM, blue light 4 h
  inhibition at 0.08 µM: 70%
[2]; CCD-1106, 4 h, calcipotriol 320 nM, blue light 4 h
  inhibition at 0.32 µM: 71%
[2]; CCD-1106, 4 h, calcipotriol 1,280 nM, blue light 4 h
  inhibition at 1.28 µM: 69%
[2]; CCD-1106, 6 h, calcipotriol 5 nM, blue light 6 h
  inhibition at 0.005 µM: 56%
[2]; CCD-1106, 6 h, calcipotriol 20 nM, blue light 6 h
  inhibition at 0.02 µM: 59%
[2]; CCD-1106, 6 h, calcipotriol 80 nM, blue light 6 h
  inhibition at 0.08 µM: 71%
[2]; CCD-1106, 6 h, calcipotriol 320 nM, blue light 6 h
  inhibition at 0.32 µM: 72%
[2]; CCD-1106, 6 h, calcipotriol 1,280 nM, blue light 6 h
  inhibition at 1.28 µM: 66%
[2]; [3]
  growth inhibition relative to untreated control: 6%
[2]; [4]
  growth inhibition relative to untreated control: 33%
[2]; [5]
  growth inhibition relative to untreated control: 47%
[2]; [6]
  growth inhibition relative to untreated control: 51%
[2]; calcipotriol 20 nM, blue light 0 h
  growth inhibition relative to untreated control: 17%
[2]; [7]
  growth inhibition relative to untreated control: 52%
[2]; [8]
  growth inhibition relative to untreated control: 35%
[2]; [9]
  growth inhibition relative to untreated control: 64%
[2]; [10]
  growth inhibition relative to untreated control: 67%
[2]; [11]
  growth inhibition relative to untreated control: 60%
[2]; [12]
  growth inhibition relative to untreated control: 67%
[2]; [13]
  growth inhibition relative to untreated control: 37%
[2]; [14]
  growth inhibition relative to untreated control: 63%
[2]; [15]
  growth inhibition relative to untreated control: 67%
[2]; for example 6 hours of blue light with 10 nm KX01
  effect of blue light exposure with the drug on cell growth inhibition: Synergistic effects
